Measurements as given in patent US7183257B2, “Use of RPL41 to treat infections and inhibit cancer” (priority 2004, dated 2007).
Peptide text beside a SMILES is read from it. * marks the point of attachment. Cbz = O=C(OCc1ccccc1)*; CH2F = FC*

How the values were obtained:
[1] = tested on: five tumor cell lines (HTB72, CRL1435, CRL5800, HCT116, MCF7); test: Caspase inhibitor z-VAD.fmk with RPL41 (morphology and Δψm assays); type: cell-based; conditions: Z-VAD.fmk 50 μM with RPL41 6.7 μM, 8 hours
Procedure: FIG. 10—RPL41 induced cell death is caspase independent. […].
. The cell death induced by RPL41, therefore, is likely to be caspase-independent. A broad-spectrum caspase inhibitor z-VAD.fmk was also incubated with five tumor cell lines, in the presence of RPL41, to determine whether the inhibition of caspases will attenuate RPL41 induced cell death. […]

[2] = tested on: 24 tumor cell lines of various tissue types (ATCC); type: cell-based
[3] = Isoelectric point of peptide; type: physicochemical

With `COC(=O)C[C@H](NC(=O)[C@H](C)NC(=O)[C@@H](NC(=O)OCc1ccccc1)C(C)C)C(=O)CF` [z-VAD.fmk] (Cbz-Val-Ala-Asp(OMe)-CH2F) the “suppression of RPL41 induced cell death” value [1] was “failed to suppress the RPL41 induced cell death”.

For “MLISSGLKDGIRSGI [control peptide unrelated to RPL41]”, the “effect on tumor cell growth” value ([2]; concentration ten times higher than that of RPL41) was “no effect on tumor cell growth” and the pI [3] was 8.5.

For “NH2-KARMRMKRKLRKRMRKRQRSRKWKR-OH (H-KARMRMKRKLRKRMRKRQRSRKWKR-OH)”, the “inhibition effect on tumor cell growth after pre-treatment of peptide with proteases” value ([2]; peptides pre-treated with proteases (DIGEST-ALL, Zymed)) was “completely abolished”.
